From PubChem BioAssay AID256 (DTP/NCI, 2004)
Where “and” joins values, the source holds several entries; their conditions need not be identical. Equal values may be shown once. Inconclusive results and toxic doses are left out. Rule for the calls: active = survival T/C of 150% or more; inactive = T/C below 125% in these data.

System: CD2F1 mice, L1210 leukemia ip, survival T/C
Assay: NCI In Vivo Anticancer Drug Screen. Data for tumor model L1210 Leukemia (intraperitoneal) in CD2F1 (CDF1) mice
Settings: higher = longer survival
Procedure, shortened: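 Tumor-bearing mice (transplanted tumor) were split into treated and vehicle control groups, and the measured endpoint of each treated group was divided by that of its vehicle controls.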

[1] = endpoint: mean survival time, dose: 100.0 mg/kg/injection, schedule: Q04DX003 (ip), vehicle: saline with Tween-80
[2] = endpoint: mean survival time, dose: 200.0 mg/kg/injection, schedule: Q04DX003 (ip), vehicle: saline with Tween-80
[3] = endpoint: mean survival time, dose: 400.0 mg/kg/injection, schedule: Q04DX003 (ip), vehicle: saline with Tween-80
[4] = endpoint: mean survival time, dose: 12.5 mg/kg/injection, schedule: Q01DX009 (ip), vehicle: other
[5] = endpoint: mean survival time, dose: 25.0 mg/kg/injection, schedule: Q01DX009 (ip), vehicle: other
[6] = endpoint: mean survival time, dose: 12.5 mg/kg/injection, schedule: Q01DX009 (ip), vehicle: saline with Tween-80
[7] = endpoint: mean survival time, dose: 25.0 mg/kg/injection, schedule: Q01DX009 (ip), vehicle: saline with Tween-80
[8] = endpoint: mean survival time, dose: 50.0 mg/kg/injection, schedule: Q01DX009 (ip), vehicle: saline with Tween-80
[9] = endpoint: mean survival time, dose: 100.0 mg/kg/injection, schedule: Q01DX009 (ip), vehicle: saline with Tween-80
[10] = endpoint: mean survival time, dose: 200.0 mg/kg/injection, schedule: Q01DX009 (ip), vehicle: saline with Tween-80
[11] = endpoint: mean survival time, dose: 400.0 mg/kg/injection, schedule: Q01DX009 (ip), vehicle: saline with Tween-80
[12] = endpoint: mean survival time, dose: 100.0 mg/kg/injection, schedule: Q01DX009 (ip), vehicle: saline

Measured: T/C

CC(=O)C1CCC2C3CC=C4CC(n5cc(C)c(=O)[nH]c5=O)CCC4(C)C3CCC12C (stereo unspecified)
inactive: endpoint: mean survival time, dose: 12.5 mg/kg/injection, schedule: Q04DX003 (ip), vehicle: Klucel (hydroxypropylcellulose) (HPC) 90 % of control | endpoint: mean survival time, dose: 25.0 mg/kg/injection, schedule: Q01DX001 (ip), vehicle: Klucel (hydroxypropylcellulose) (HPC) 95 % of control | endpoint: mean survival time, dose: 25.0 mg/kg/injection, schedule: Q04DX003 (ip), vehicle: Klucel (hydroxypropylcellulose) (HPC) 96 % of control | endpoint: mean survival time, dose: 50.0 mg/kg/injection, schedule: Q01DX001 (ip), vehicle: Klucel (hydroxypropylcellulose) (HPC) 100 % of control | endpoint: mean survival time, dose: 50.0 mg/kg/injection, schedule: Q04DX003 (ip), vehicle: Klucel (hydroxypropylcellulose) (HPC) 94 % of control | endpoint: mean survival time, dose: 100.0 mg/kg/injection, schedule: Q01DX001 (ip), vehicle: Klucel (hydroxypropylcellulose) (HPC) 88 % of control | endpoint: mean survival time, dose: 100.0 mg/kg/injection, schedule: Q04DX003 (ip), vehicle: Klucel (hydroxypropylcellulose) (HPC) 100 % of control | endpoint: mean survival time, dose: 200.0 mg/kg/injection, schedule: Q01DX001 (ip), vehicle: Klucel (hydroxypropylcellulose) (HPC) 91 % of control | endpoint: mean survival time, dose: 200.0 mg/kg/injection, schedule: Q04DX003 (ip), vehicle: Klucel (hydroxypropylcellulose) (HPC) 102 % of control | endpoint: mean survival time, dose: 400.0 mg/kg/injection, schedule: Q01DX001 (ip), vehicle: Klucel (hydroxypropylcellulose) (HPC) 95 % of control

N=c1c2ncn(C3CCCC3)c2ncn1Cc1ccc([N+](=O)[O-])cc1
inactive: endpoint: mean survival time, dose: 75.0 mg/kg/injection, schedule: Q01DX001 (ip), vehicle: other 106 % of control

CC(=O)Nc1ccc2c(c1)C(P(=O)(OC(C)C)OC(C)C)c1ccccc1-2 (stereo unspecified)
inactive: [1] 95 % of control | [2] 95 % of control | [3] 92 % of control

NNc1ncnc2c1cnn2C1OC(CO)C(O)C1O (stereo unspecified)
inactive: [4] 103 % of control | [5] 103 % of control | endpoint: mean survival time, dose: 50.0 mg/kg/injection, schedule: Q01DX009 (ip), vehicle: other 103 % of control | endpoint: mean survival time, dose: 100.0 mg/kg/injection, schedule: Q01DX009 (ip), vehicle: other 110 % of control | endpoint: mean survival time, dose: 200.0 mg/kg/injection, schedule: Q01DX009 (ip), vehicle: other 112 % of control | endpoint: mean survival time, dose: 400.0 mg/kg/injection, schedule: Q01DX009 (ip), vehicle: other 89 % of control

O=C1NC(=O)/C(=C/C=C/c2ccccc2)S1
inactive: [6] 94 % of control and 101 % of control | [7] 95 % of control and 109 % of control | [8] 97 % of control and 101 % of control | [9] 98 % of control and 101 % of control | [10] 95 % of control and 103 % of control | [11] 104 % of control

Cc1cc(N=CN(C)C)c2ccccc2n1
inactive: endpoint: mean survival time, dose: 3.12 mg/kg/injection, schedule: Q01DX009 (ip), vehicle: other 106 % of control | endpoint: mean survival time, dose: 6.25 mg/kg/injection, schedule: Q01DX009 (ip), vehicle: other 100 % of control | [4] 100 % of control | [5] 106 % of control and 107 % of control

O=C(Nc1ccc(Cl)c(C(F)(F)F)c1)Nc1cc(Cl)ccc1Sc1cc(Cl)c(Cl)cc1S(=O)(=O)O
inactive: endpoint: mean survival time, dose: 100.0 mg/kg/injection, schedule: Q01DX001 (ip), vehicle: saline sonified 102 % of control | [9] 100 % of control | endpoint: mean survival time, dose: 200.0 mg/kg/injection, schedule: Q01DX001 (ip), vehicle: saline sonified 93 % of control | [10] 105 % of control | endpoint: mean survival time, dose: 400.0 mg/kg/injection, schedule: Q01DX001 (ip), vehicle: saline sonified 93 % of control | [11] 102 % of control

CC(=O)NNC(=O)c1ccccn1
inactive: endpoint: mean survival time, dose: 12.5 mg/kg/injection, schedule: Q01DX009 (ip), vehicle: saline 114 % of control | endpoint: mean survival time, dose: 25.0 mg/kg/injection, schedule: Q01DX009 (ip), vehicle: saline 110 % of control | endpoint: mean survival time, dose: 50.0 mg/kg/injection, schedule: Q01DX009 (ip), vehicle: saline 104 % of control | endpoint: mean survival time, dose: 50.0 mg/kg/injection, schedule: Q#A X018 (ip), vehicle: water 103 % of control | endpoint: mean survival time, dose: 100.0 mg/kg/injection, schedule: Q01DX001 (ip), vehicle: water 101 % of control | [12] 104 % of control | endpoint: mean survival time, dose: 100.0 mg/kg/injection, schedule: Q01DX009 (ip), vehicle: water 110 % of control | endpoint: mean survival time, dose: 100.0 mg/kg/injection, schedule: Q01DX009 (sc), vehicle: water 119 % of control | endpoint: mean survival time, dose: 200.0 mg/kg/injection, schedule: Q01DX001 (ip), vehicle: water 109 % of control | endpoint: mean survival time, dose: 200.0 mg/kg/injection, schedule: Q01DX009 (sc), vehicle: water 122 % of control

CC(=O)CSc1ncnc2nc[nH]c12
active: endpoint: mean survival time, dose: 1000.0 mg/kg/injection, schedule: Q01DX015 (ip), vehicle: saline 150 % of control
inactive: endpoint: mean survival time, dose: 62.5 mg/kg/injection, schedule: Q01DX015 (ip), vehicle: saline 118 % of control | endpoint: mean survival time, dose: 250.0 mg/kg/injection, schedule: Q01DX015 (ip), vehicle: saline 122 % of control

N=C(N)[Se]
inactive: [1] 95 % of control | [2] 101 % of control | [3] 95 % of control

C=C(C)[C@]12CC(C)C34OC(/C=C\C=C\CCCCCCCCC)(O[C@@H]1[C@@H]3[C@@H]1O[C@]1(CO)[C@@H](O)[C@]1(O)C(=O)C(C)=C[C@@H]41)O2 (stereo partly specified)
inactive: endpoint: mean survival time, dose: 0.01 mg/kg/injection, schedule: Q01DX009 (ip), vehicle: distilled water + alcohol 102 % of control | endpoint: mean survival time, dose: 0.02 mg/kg/injection, schedule: Q01DX009 (ip), vehicle: distilled water + alcohol 94 % of control | endpoint: mean survival time, dose: 0.04 mg/kg/injection, schedule: Q01DX009 (ip), vehicle: distilled water + alcohol 100 % of control | endpoint: mean survival time, dose: 0.09 mg/kg/injection, schedule: Q01DX009 (ip), vehicle: alcohol 95 % of control | endpoint: mean survival time, dose: 0.09 mg/kg/injection, schedule: Q01DX009 (ip), vehicle: distilled water + alcohol 96 % of control | endpoint: mean survival time, dose: 0.19 mg/kg/injection, schedule: Q01DX009 (ip), vehicle: alcohol 100 % of control | endpoint: mean survival time, dose: 0.38 mg/kg/injection, schedule: Q01DX009 (ip), vehicle: alcohol 101 % of control | endpoint: mean survival time, dose: 0.75 mg/kg/injection, schedule: Q01DX009 (ip), vehicle: alcohol 112 % of control | endpoint: mean survival time, dose: 1.5 mg/kg/injection, schedule: Q01DX009 (ip), vehicle: alcohol 117 % of control

[NH-]NC(=S)[S-].[NH-]NC(=S)[S-].[Ni]
inactive: [1] 98 % of control | [2] 102 % of control | [3] 107 % of control

COc1cc(NCc2ccc3nc(N)nc(N)c3c2C)cc(OC)c1OC (tested in a mixture with another compound)
inactive: endpoint: median survival time, dose: 10.0 mg/kg/injection, schedule: Q01DX005 (ip), vehicle: water 115 % of control

COc1ccc(C2=NNC(=O)CC2)cc1OC
inactive: endpoint: mean survival time, dose: 12.5 mg/kg/injection, schedule: Q04DX003 (ip), vehicle: saline 107 % of control | endpoint: mean survival time, dose: 25.0 mg/kg/injection, schedule: Q04DX003 (ip), vehicle: saline 115 % of control | endpoint: mean survival time, dose: 50.0 mg/kg/injection, schedule: Q04DX003 (ip), vehicle: saline 98 % of control

c1ccc(P(=N[P+](c2ccccc2)(c2ccccc2)c2ccccc2)(c2ccccc2)c2ccccc2)cc1
inactive: endpoint: mean survival time, dose: 0.75 mg/kg/injection, schedule: Q01DX009 (ip), vehicle: saline 106 % of control | endpoint: mean survival time, dose: 1.5 mg/kg/injection, schedule: Q01DX009 (ip), vehicle: saline 103 % of control | endpoint: mean survival time, dose: 3.13 mg/kg/injection, schedule: Q01DX009 (ip), vehicle: saline with Tween-80 94 % of control | endpoint: mean survival time, dose: 3.13 mg/kg/injection, schedule: Q04DX002 (ip), vehicle: saline with Tween-80 102 % of control | endpoint: mean survival time, dose: 6.25 mg/kg/injection, schedule: Q04DX002 (ip), vehicle: saline with Tween-80 110 % of control | endpoint: mean survival time, dose: 12.5 mg/kg/injection, schedule: Q04DX002 (ip), vehicle: saline with Tween-80 90 % of control and 93 % of control

CC1=CC(=NN=c2cc(C)n([O-])c(C)c2)C=C(C)[N+]1=O
active: endpoint: mean survival time, dose: 200.0 mg/kg/injection, schedule: Q01DX009 (ip), vehicle: suspension in saline 166 % of control
inactive: [6] 104 % of control | endpoint: mean survival time, dose: 12.5 mg/kg/injection, schedule: Q01DX009 (ip), vehicle: suspension in saline 108 % of control | [7] 108 % of control | endpoint: mean survival time, dose: 25.0 mg/kg/injection, schedule: Q01DX009 (ip), vehicle: suspension in saline 110 % of control | [8] 101 % of control | endpoint: mean survival time, dose: 50.0 mg/kg/injection, schedule: Q01DX009 (ip), vehicle: suspension in saline 106 % of control | endpoint: mean survival time, dose: 100.0 mg/kg/injection, schedule: Q01DX009 (ip), vehicle: suspension in saline 104 % of control | [10] 106 % of control

CCOC(=O)C1(C(=O)OCC)COC(C)(C)OC1
inactive: [12] 93 % of control | endpoint: mean survival time, dose: 200.0 mg/kg/injection, schedule: Q01DX009 (ip), vehicle: saline 94 % of control | endpoint: mean survival time, dose: 400.0 mg/kg/injection, schedule: Q01DX009 (ip), vehicle: saline 94 % of control
